Among the data in patent US8778935B2 (Centro Nacional de Investigaciones Oncologicas (CNIO), priority 2009, dated 2014) are IC50 values, retold here.

One assay deals with T1, PI3K (p110α/p85α) (Homo sapiens, UniProt P42336).
T1 construct: purchased Carna Biosciences 07CBS-0402A
T1 sequence (P42336 whole entry): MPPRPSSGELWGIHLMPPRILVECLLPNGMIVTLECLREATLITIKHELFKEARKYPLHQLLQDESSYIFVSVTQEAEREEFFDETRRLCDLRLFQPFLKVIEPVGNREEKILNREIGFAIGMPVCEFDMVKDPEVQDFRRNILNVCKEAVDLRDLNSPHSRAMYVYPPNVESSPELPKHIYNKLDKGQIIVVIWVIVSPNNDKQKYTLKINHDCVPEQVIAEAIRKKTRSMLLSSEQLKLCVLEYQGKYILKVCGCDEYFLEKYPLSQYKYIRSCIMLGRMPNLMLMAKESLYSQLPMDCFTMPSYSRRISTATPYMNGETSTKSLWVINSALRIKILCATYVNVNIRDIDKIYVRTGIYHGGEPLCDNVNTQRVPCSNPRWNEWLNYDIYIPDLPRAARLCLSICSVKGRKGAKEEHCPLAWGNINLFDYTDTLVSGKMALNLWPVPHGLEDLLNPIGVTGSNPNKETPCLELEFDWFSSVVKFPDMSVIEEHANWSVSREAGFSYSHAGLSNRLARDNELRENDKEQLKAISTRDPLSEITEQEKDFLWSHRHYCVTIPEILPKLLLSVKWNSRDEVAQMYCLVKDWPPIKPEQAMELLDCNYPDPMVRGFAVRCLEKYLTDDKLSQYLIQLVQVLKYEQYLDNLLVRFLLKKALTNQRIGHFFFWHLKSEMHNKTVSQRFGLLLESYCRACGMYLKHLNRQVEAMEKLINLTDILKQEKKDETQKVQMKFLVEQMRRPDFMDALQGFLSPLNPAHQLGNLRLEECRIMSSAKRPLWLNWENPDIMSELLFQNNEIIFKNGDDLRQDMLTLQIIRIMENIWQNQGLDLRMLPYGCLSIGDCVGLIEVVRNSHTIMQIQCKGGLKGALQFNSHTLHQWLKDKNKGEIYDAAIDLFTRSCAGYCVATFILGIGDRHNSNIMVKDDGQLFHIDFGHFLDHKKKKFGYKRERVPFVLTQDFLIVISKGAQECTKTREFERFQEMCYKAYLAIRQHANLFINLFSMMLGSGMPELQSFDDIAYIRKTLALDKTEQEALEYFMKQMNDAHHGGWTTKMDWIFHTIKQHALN
T1 sequence (P27986 whole entry partner): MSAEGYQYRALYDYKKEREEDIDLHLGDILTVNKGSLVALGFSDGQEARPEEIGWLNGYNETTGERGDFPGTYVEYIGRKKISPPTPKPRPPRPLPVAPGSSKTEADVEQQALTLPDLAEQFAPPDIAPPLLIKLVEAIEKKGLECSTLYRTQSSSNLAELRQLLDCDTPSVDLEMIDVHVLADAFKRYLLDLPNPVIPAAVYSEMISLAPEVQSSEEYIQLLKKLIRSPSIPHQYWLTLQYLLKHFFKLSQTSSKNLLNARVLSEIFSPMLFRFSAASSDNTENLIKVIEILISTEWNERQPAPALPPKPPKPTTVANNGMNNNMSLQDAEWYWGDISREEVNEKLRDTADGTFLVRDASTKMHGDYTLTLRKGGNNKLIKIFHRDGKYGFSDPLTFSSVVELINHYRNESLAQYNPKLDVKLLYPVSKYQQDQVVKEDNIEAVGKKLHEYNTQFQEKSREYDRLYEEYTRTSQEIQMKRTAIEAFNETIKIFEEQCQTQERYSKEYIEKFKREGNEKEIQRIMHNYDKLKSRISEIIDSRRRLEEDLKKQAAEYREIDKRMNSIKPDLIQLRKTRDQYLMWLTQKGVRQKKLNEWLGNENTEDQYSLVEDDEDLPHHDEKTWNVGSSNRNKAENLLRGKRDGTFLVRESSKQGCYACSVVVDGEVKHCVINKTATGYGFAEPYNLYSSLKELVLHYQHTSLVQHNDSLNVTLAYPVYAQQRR
Kind of assay: PI3K Activity Assay (ADP Hunter Plus). The format is biochemical. Particulars: PI3Kα activity, quantitative results; read-out: PI3Kα IC50. On the procedure: The kinase activity was measured by using the commercial ADP Hunter™ Plus assay available from DiscoveRx (#33-016), which is a homogeneous assay to measure the accumulation of ADP, a universal product of kinase activity. […] Reaction was carried out for 1 hour at 25° C. Reagent A and B were sequentially added to the wells and plates were incubated for 30 min at 37° C. […] Values were normalized against the control activity included for each enzyme (i.e., 100% PI3 kinase activity, without compound). These values were plot against the inhibitor concentration and were fit to a sigmoid dose-response curve by using the Graphad software.
As a reminder, the IC50 is the concentration that gives 50% inhibition. As for `CCOC(=O)N1CCC(NC(=O)c2cn3cc(-c4cccc5[nH]ncc45)nc(N4CCOCC4)c3n2)CC1` [2-182], the IC50 was determined as 245 nM.
`CNc1ncc(-c2nc(N3CCOCC3)c3nc(CN4CCN(S(C)(=O)=O)CC4)cn3c2Cl)cn1` [2-207]: the IC50 turned out to be 11 nM.
The same measure, in the same setting: then `CS(=O)(=O)N1CCN(Cc2cn3c(Cl)c(-c4ccc(C#N)nc4)nc(N4CCOCC4)c3n2)CC1` [2-206], with 3700 nM; and `CN(C)CC(=O)N1CCN(Cc2cn3cc(-c4cnc(N)nc4)nc(N4CCOCC4)c3n2)CC1` [2-230], with 34 nM.
The same measure, in the same setting: then `Cc1nc(N)ncc1-c1cn2cc(CN3CCN(S(C)(=O)=O)CC3)nc2c(N2CCOCC2)n1` [2-200], with 32 nM.
Regarding `Nc1ncc(-c2cn3cc(CN4CCNCC4)nc3c(N3CCOCC3)n2)cn1` [2-226], the IC50 stood at 77 nM.
For `COc1ccncc1-c1cn2cc(CN3CCN(S(C)(=O)=O)CC3)nc2c(N2CCOCC2)n1` [2-204], the IC50 was 10000 nM.
Take `CS(=O)(=O)N1CCN(Cc2nc3c(N4CCOCC4)nc(-c4cccc5[nH]ncc45)cn3c2Br)CC1` [2-183]: the IC50 stood at 170 nM.

The same assay, now with this note: quantitative results of Table 4; read-out: PI3Kα IC50.
In the case of `O=C1NCCC12CCN(Cc1cn3cc(-c4cccc5[nH]ncc45)nc(N4CCOCC4)c3n1)CC2` [2-130], the IC50 came out at 1400 nM.
Same read-out and setting: then `CS(=O)(=O)N1CCC2(CC1)CN(Cc1cn3cc(-c4cccc5[nH]ncc45)nc(N4CCOCC4)c3n1)C2` [2-150], with 2800 nM; and `CS(=O)(=O)N1CCN(Cc2cn3cc(-c4ccc(N)cc4)nc(N4CCOCC4)c3n2)CC1` [2-89], with 33000 nM.
As for `CCOC(=O)c1cn2cc(-c3cnc(N)nc3)nc(N3CCOCC3)c2n1` [2-138], the IC50 was 12 nM.
Same read-out and setting: then `CC(C)(C)OC(=O)N1CC2CN(Cc3cn4cc(-c5cccc6[nH]ncc56)nc(N5CCOCC5)c4n3)CC2C1` (stereo not shown) [2-99], with 7900 nM.
Still for that read-out and setting: under `O=C(NCCN1CCOCC1)c1cn2cc(-c3cccnc3)nc(N3CCOCC3)c2n1` [2-159] stands 398 nM; under `Cc1cn2cc(-c3cnc(N)nc3)nc(-c3ccncc3)c2n1` [2-166], 1800 nM.
The same measure, in the same setting: then `Cc1ccc(-c2cn3cc(CN4CCN(S(C)(=O)=O)CC4)nc3c(N3CCOCC3)n2)cn1` [2-126], with 776 nM.
On to `NC(=O)c1cn2c(Cl)c(-c3cccc4[nH]cc(Cl)c34)nc(N3CCOCC3)c2n1` [2-104], for which the IC50 came to 93000 nM.
In the case of `c1cc(-c2cn3cc(CN4CCC5(CCNCC5)CC4)nc3c(N3CCOCC3)n2)c2cn[nH]c2c1` [2-111], the IC50 turned out to be 813 nM.
Still for that read-out and setting: then `CC(=O)NCCNC(=O)c1cn2cc(-c3cccnc3)nc(N3CCOCC3)c2n1` [2-158], with 2300 nM; and `NC(=O)c1cn2cc(-c3c(F)ccc4[nH]cc(Cl)c34)nc(N3CCOCC3)c2n1` [2-105], with 123000 nM.
`NC(=O)c1cn2cc(-c3ccncc3)nc(N3CCOCC3)c2n1` [2-91]: the IC50 was determined as 3900 nM.
As for `c1cc(-c2cn3cc(CN4CC5CNCC5C4)nc3c(N3CCOCC3)n2)c2cn[nH]c2c1` (stereo not shown) [2-117], the IC50 came to 851 nM.
Same read-out and setting: under `NC(=O)c1cn2cc(-c3cnc(N)nc3)nc(N3CCCCC3)c2n1` [2-120] stands 1300 nM.
Take `COc1cc(C)c(-c2cn3cc(CN4CCN(S(C)(=O)=O)CC4)nc3c(N3CCOCC3)n2)cn1` [2-153]: the IC50 came to 2400 nM.
On the same count and under the same terms, then `CN(C)CCNC(=O)c1cn2cc(-c3cccc4[nH]ncc34)nc(N3CCOCC3)c2n1` [2-141], with 65 nM; and `NC(=O)c1cn2cc(-c3cccc4[nH]ccc34)nc(N3CCOCC3)c2n1` [2-94], with 944 nM; and `CS(=O)(=O)N1CCC2(CC1)CN(Cc1cn3cc(-c4cnc(N)nc4)nc(N4CCOCC4)c3n1)C2` [2-169], with 110 nM.
Same read-out and setting: under `CS(=O)(=O)N1CCC2(CCN(Cc3cn4cc(-c5cccc6[nH]ncc56)nc(N5CCOCC5)c4n3)C2)CC1` [2-129] stands 2500 nM.

The same assay, now with this note: quantitative results; read-out: PI3Kα IC50.
Turning to `c1cc(-c2cn3cc(C4CC4)nc3c(N3CCOCC3)n2)c2cn[nH]c2c1` [2-19, 2-cyclopropyl-6-(1H-indazol-4-yl)-8-morpholinoimidazo[1,2-a]pyrazine], the IC50 came out at 438 nM.
The same measure, in the same setting: under `CC(=O)Nc1ccc(-c2cn3cc(CN4CCN(S(C)(=O)=O)CC4)nc3c(N3CCOCC3)n2)cn1` [2-81] stands 210 nM; under `Cc1nc2c(N3CCOCC3)nc(-c3cccc4[nH]ncc34)cn2c1C1CCNCC1` [2-57, 6-(1H-indazol-4-yl)-2-methyl-8-morpholino-3-(piperidin-4-yl)imidazo[1,2-a]-pyrazine], 144 nM; under `CS(=O)(=O)N1CCN(C(=O)c2cn3cc(-c4cccc(O)c4)nc(N4CCOCC4)c3n2)CC1` [2-11, (6-(3-hydroxyphenyl)-8-morpholinoimidazo[1,2-a]pyrazin-2-yl)(4-sulfonylmethyl-piperazin-1-yl)methanone], 44 nM.
On the same count and under the same terms, under `OCc1cn2cc(-c3cccc(O)c3)nc(N3CCOCC3)c2n1` [2-04, 3-(2-(hydroxymethyl)-8-morpholinoimidazo[1,2-a]pyrazin-6-yl)phenol] stands 639 nM; under `O=C(O)c1cn2cc(-c3cccc(O)c3)nc(N3CCOCC3)c2n1` [2-02, 6-(3-hydroxyphenyl)-8-morpholinoimidazo[1,2-a]pyrazine-2-carboxylic acid], 19000 nM.
Still for that read-out and setting: then `CNC(=O)Nc1ccc(-c2cn3cc(C)nc3c(N3CCOCC3)n2)cc1` [2-29, 1-methyl-3-(4-(2-methyl-8-morpholinoimidazo[1,2-a]pyrazin-6-yl)phenyl)urea], with 3000 nM; and `FC(F)(F)c1cn2cc(-c3cccc4[nH]ncc34)nc(N3CCOCC3)c2n1` [2-20, 2-(trifluoromethyl)-6-(1H-indazol-4-yl)-8-morpholinoimidazo[1,2-a]pyrazine], with 1800 nM.
As to `O=C1CN(Cc2cn3cc(-c4cccc(O)c4)nc(N4CCOCC4)c3n2)CCN1` [2-08, 4-((6-(3-hydroxyphenyl)-8-morpholinoimidazo[1,2-a]pyrazin-2-yl)methyl)piperazin-2-one], the IC50 was found to be 540 nM.
Still for that read-out and setting: under `Cc1nc2c(N3CCOCC3)nc(-c3cccc4[nH]ncc34)cn2c1C1=CCNCC1` [2-44, 3-(1,2,3,6-tetrahydropyridin-4-yl)-6-(1H-indazol-4-yl)-2-methyl-8-morpholino-imidazo[1,2-a]pyrazine] stands 731 nM.

Still in this assay, the particulars now being: semi-quantitative results; read-out: PI3Kα IC50 (semi-quantitative class).
As to `Oc1cccc(-c2cn3c(N4CCNCC4)cnc3c(N3CCOCC3)n2)c1` [2-40, 3-(8-morpholino-3-(piperazin-1-yl)imidazo[1,2-a]pyrazin-6-yl)phenol], the IC50 was in the range of 100 to 1000 nM.
As to `Cc1nc2c(N3CCOCC3)nc(-c3cccc4[nH]ncc34)cn2c1C1CCNCC1` [2-57, 6-(1H-indazol-4-yl)-2-methyl-8-morpholino-3-(piperidin-4-yl)imidazo[1,2-a]-pyrazine], the IC50 lay within 100 to 1000 nM.
Same read-out and setting: under `OCc1cn2cc(-c3cccc(O)c3)nc(N3CCOCC3)c2n1` [2-04, 3-(2-(hydroxymethyl)-8-morpholinoimidazo[1,2-a]pyrazin-6-yl)phenol] stands 100 to 1000 nM.
Same read-out and setting: then `Cc1nc2c(N3CCOCC3)nc(-c3cccc4[nH]ncc34)cn2c1C(=O)NC1CCNCC1` [2-64, 6-(1H-indazol-4-yl)-2-methyl-8-morpholino-N-(piperidin-4-yl)imidazo[1,2-a]-pyrazine-3-carboxamide], with above 1000 nM; and `CN1CCN(c2cnc3c(N4CCOCC4)nc(-c4cccc5[nH]ncc45)cn23)CC1` [2-38, 6-(1H-indazol-4-yl)-3-(4-methylpiperazin-1-yl)-8-morpholinoimidazo[1,2-a]-pyrazine], with 100 to 1000 nM; and `O=C1CN(Cc2cn3cc(-c4cccc(O)c4)nc(N4CCOCC4)c3n2)CCN1` [2-08, 4-((6-(3-hydroxyphenyl)-8-morpholinoimidazo[1,2-a]pyrazin-2-yl)methyl)piperazin-2-one], with 100 to 1000 nM.
Still for that read-out and setting: under `Cc1nc2c(N3CCOCC3)nc(-c3cccc4[nH]ncc34)cn2c1C1=CCNCC1` [2-44, 3-(1,2,3,6-tetrahydropyridin-4-yl)-6-(1H-indazol-4-yl)-2-methyl-8-morpholino-imidazo[1,2-a]pyrazine] stands 100 to 1000 nM; under `CS(=O)(=O)N1CCN(Cc2cn3c(Cl)c(-c4cccc5[nH]ncc45)nc(N4CCOCC4)c3n2)CC1` [2-60, 5-chloro-6-(1H-indazol-4-yl)-8-morpholino-2-((4-sulfonylmethylpiperazin-1-yl)-methyl)imidazo[1,2-a]pyrazine], 100 to 1000 nM.
